In ChEMBL document CHEMBL1201862, “PubChem BioAssay data set” (2004):
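Briefly, cells in 96-well plates were exposed to five compound concentrations for 48 h, and endpoints were estimated by linear interpolation. GI50 marks 50% less growth.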 Activity calls are given as the source filed them. Cut-off read from the data, not from the text of the source: active = GI50 up to about 1.1 µM and inactive = higher.

Columns and labels:
Experiment in all cases: inhibition of tumour cell growth, NCI panel, 48 h
786-0 = system: 786-0
ACHN = system: ACHN
CCRF-CEM = system: CCRF-CEM
EKVX = system: EKVX
HCT-15 = system: HCT-15
HT-29 = system: HT-29
IGROV-1 = system: IGROV-1
KM12 = system: KM12
NCI-H23 = system: NCI-H23
NCI/ADR-RES = system: NCI/ADR-RES
OVCAR-4 = system: OVCAR-4
PC-3 = system: PC-3
RXF 393 = system: RXF 393
SN12C = system: SN12C
SNB-19 = system: SNB-19
SNB-75 = system: SNB-75
T47D = system: T47D
UO-31 = system: UO-31
HCC 2998 = system: HCC 2998

Compound	GI50 (786-0)	GI50 (ACHN)	GI50 (CCRF-CEM)	GI50 (EKVX)	GI50 (HCT-15)	GI50 (HT-29)	GI50 (IGROV-1)	GI50 (KM12)	GI50 (NCI-H23)	GI50 (NCI/ADR-RES)	GI50 (OVCAR-4)	GI50 (PC-3)	GI50 (RXF 393)	GI50 (SN12C)	GI50 (SNB-19)	GI50 (SNB-75)	GI50 (T47D)	GI50 (UO-31)	GI50 (HCC 2998)
O=C(c1cccnc1)N1N=C(c2ccccc2)CC1(O)c1cc(F)c(Cl)cc1Cl (centres undefined)	22.1 µM (inactive)	23.2 µM (inactive)	24.6 µM (inactive)	21.8 µM (inactive)	26.2 µM	19.6 µM (inactive)	10.4 µM (inactive)	25.6 µM (inactive)	27 µM (inactive)	23.5 µM (inactive)	27 µM (inactive)	20.5 µM (inactive)	16.7 µM (inactive)	17.2 µM (inactive)	40 µM (inactive)	16.4 µM (inactive)	12.3 µM (inactive)	25.6 µM (inactive)	–
O=C(CSCC(=O)N/N=C/c1cccc(O)c1)N/N=C/c1cccc(O)c1	> 100 µM (inactive)	> 100 µM (inactive)	–	> 100 µM (inactive)	> 100 µM	> 100 µM (inactive)	> 100 µM (inactive)	> 100 µM (inactive)	> 100 µM (inactive)	> 100 µM (inactive)	> 100 µM (inactive)	> 100 µM (inactive)	> 100 µM (inactive)	> 100 µM (inactive)	> 100 µM (inactive)	> 100 µM (inactive)	> 100 µM (inactive)	> 100 µM (inactive)	> 100 µM (inactive)
O=C(ON=C1c2ccccc2C(Br)C(Br)c2ccccc21)c1cc([N+](=O)[O-])cc([N+](=O)[O-])c1 (centres undefined)	14.9 µM (inactive)	21.3 µM (inactive)	0.787 µM (active)	25.4 µM (inactive)	20.5 µM	16.3 µM (inactive)	2.8 µM (inactive)	19.4 µM (inactive)	20.3 µM (inactive)	19.6 µM (inactive)	22.2 µM (inactive)	28.5 µM (inactive)	19.6 µM (inactive)	18.5 µM (inactive)	24.1 µM (inactive)	13.9 µM (inactive)	35.2 µM (inactive)	–	29.4 µM (inactive)
c1csc(-c2ccc(-c3ccc(-c4cccs4)s3)s2)c1	> 100 µM (inactive)	> 100 µM (inactive)	–	> 100 µM (inactive)	> 100 µM	> 100 µM (inactive)	> 100 µM (inactive)	> 100 µM (inactive)	> 100 µM (inactive)	> 100 µM (inactive)	> 100 µM (inactive)	> 100 µM (inactive)	> 100 µM (inactive)	> 100 µM (inactive)	> 100 µM (inactive)	> 100 µM (inactive)	> 100 µM (inactive)	> 100 µM (inactive)	> 100 µM (inactive)
O=c1c2cc(S(=O)(=O)O)ccc2nc(COc2ccc(Oc3ccc(Cl)cc3Cl)cc2)n1C(=S)Nc1ccc(Cl)cc1	19.2 µM (inactive)	23.6 µM (inactive)	34.7 µM (inactive)	21.8 µM (inactive)	21 µM	20.6 µM (inactive)	28.3 µM (inactive)	22.5 µM (inactive)	18.7 µM (inactive)	17.7 µM (inactive)	23.9 µM (inactive)	34.1 µM (inactive)	15 µM (inactive)	18.8 µM (inactive)	33.4 µM (inactive)	18.8 µM (inactive)	34.6 µM (inactive)	15.8 µM (inactive)	–
NC(=O)C1CCCN1Cc1ccc2c(c1)OCO2 (centres undefined)	> 100 µM (inactive)	> 100 µM (inactive)	> 100 µM (inactive)	> 100 µM (inactive)	> 100 µM	> 100 µM (inactive)	> 100 µM (inactive)	> 100 µM (inactive)	> 100 µM (inactive)	> 100 µM (inactive)	> 100 µM (inactive)	> 100 µM (inactive)	> 100 µM (inactive)	> 100 µM (inactive)	> 100 µM (inactive)	> 100 µM (inactive)	> 100 µM (inactive)	> 100 µM (inactive)	–
CNC(=O)c1cc2nc3ccccc3c(=O)n2c2ccccc12	> 10 µM (inactive)	> 10 µM (inactive)	> 10 µM (inactive)	> 10 µM (inactive)	> 10 µM	> 10 µM (inactive)	> 10 µM (inactive)	> 10 µM (inactive)	> 10 µM (inactive)	> 10 µM (inactive)	> 10 µM (inactive)	> 10 µM (inactive)	> 10 µM (inactive)	> 10 µM (inactive)	> 10 µM (inactive)	–	> 10 µM (inactive)	> 10 µM (inactive)	> 10 µM (inactive)
O=c1oc2cccnc2n1CCCCN1CCN(c2ccccc2)CC1	> 100 µM (inactive)	> 100 µM (inactive)	> 100 µM (inactive)	> 100 µM (inactive)	> 100 µM	> 100 µM (inactive)	> 100 µM (inactive)	–	> 100 µM (inactive)	> 100 µM (inactive)	> 100 µM (inactive)	> 100 µM (inactive)	> 100 µM (inactive)	–	> 100 µM (inactive)	–	> 100 µM (inactive)	> 100 µM (inactive)	> 100 µM (inactive)
Cc1ccc(-c2cc(N)n(-c3nc4c(c(=O)n(C)c(=O)n4C)n3C)n2)cc1	42.2 µM (inactive)	> 100 µM (inactive)	> 100 µM (inactive)	62.2 µM (inactive)	> 100 µM	> 100 µM (inactive)	> 100 µM (inactive)	> 100 µM (inactive)	67 µM (inactive)	95.1 µM (inactive)	42.5 µM (inactive)	> 100 µM (inactive)	> 100 µM (inactive)	> 100 µM (inactive)	94.4 µM (inactive)	–	> 100 µM (inactive)	> 100 µM (inactive)	> 100 µM (inactive)
Cc1cc2c(cc1Cl)SC(NNC(=O)c1ccncc1)=NS2(=O)=O	> 10 µM (inactive)	> 10 µM (inactive)	> 10 µM (inactive)	> 10 µM (inactive)	> 10 µM	> 10 µM (inactive)	> 10 µM (inactive)	> 10 µM (inactive)	> 10 µM (inactive)	> 10 µM (inactive)	> 10 µM (inactive)	> 10 µM (inactive)	> 10 µM (inactive)	> 10 µM (inactive)	> 10 µM (inactive)	> 10 µM (inactive)	> 10 µM (inactive)	–	> 10 µM (inactive)
COC(=O)[C@@]12C(=O)C(C)C(=O)[C@]1(C)C(C)=C[C@H]1[C@]3(C=O)CC[C@H](OC(C)=O)C(C)(C)[C@H]3CC[C@@]12C (some centres undefined)	> 100 µM (inactive)	> 100 µM (inactive)	4.06 µM (inactive)	> 100 µM (inactive)	> 100 µM	> 100 µM (inactive)	–	> 100 µM (inactive)	> 100 µM (inactive)	> 100 µM (inactive)	> 100 µM (inactive)	> 100 µM (inactive)	> 100 µM (inactive)	–	> 100 µM (inactive)	> 100 µM (inactive)	> 100 µM (inactive)	> 100 µM (inactive)	> 100 µM (inactive)
C=[N+](CNC(=O)CNC(=O)C(Cc1ccc([N+](=O)[O-])cc1)NC(=O)OC(C)(C)C)C(=O)CNC(=O)C(Cc1ccc([N+](=O)[O-])cc1)NC(=O)OC(C)(C)C (centres undefined)	69.5 µM (inactive)	> 100 µM (inactive)	–	> 100 µM (inactive)	> 100 µM	49.1 µM (inactive)	42.4 µM (inactive)	53.1 µM (inactive)	68.1 µM (inactive)	> 100 µM (inactive)	> 100 µM (inactive)	29.8 µM (inactive)	39.4 µM (inactive)	47.9 µM (inactive)	37 µM (inactive)	32.9 µM (inactive)	> 10 µM (inactive)	> 100 µM (inactive)	38.9 µM (inactive)
Cc1ccc(S(=O)(=O)NC(=O)NC(Cc2ccc(O)c(O)c2)C(=O)O)cc1 (centres undefined)	20.4 µM (inactive)	> 100 µM (inactive)	25.1 µM (inactive)	> 100 µM (inactive)	> 100 µM	> 100 µM (inactive)	> 100 µM (inactive)	> 100 µM (inactive)	> 100 µM (inactive)	> 100 µM (inactive)	> 100 µM (inactive)	> 100 µM (inactive)	14 µM (inactive)	> 100 µM (inactive)	> 100 µM (inactive)	–	> 100 µM (inactive)	> 100 µM (inactive)	–
CCCCC(=O)Nc1ccc2c(C)cc(-c3ccc(-c4cc(-c5ccc(C)cc5)cc(-c5ccc(-c6cc(C)c7ccc(NC(=O)CCCC)nc7n6)cc5)n4)cc3)nc2n1	> 100 µM (inactive)	> 100 µM (inactive)	> 100 µM (inactive)	> 100 µM (inactive)	> 100 µM	–	–	> 100 µM (inactive)	> 100 µM (inactive)	> 100 µM (inactive)	> 100 µM (inactive)	> 100 µM (inactive)	–	> 100 µM (inactive)	> 100 µM (inactive)	> 100 µM (inactive)	> 100 µM (inactive)	> 100 µM (inactive)	> 100 µM (inactive)
COc1ccc(CC(=O)N2CCC3(C)CC(=O)CC=C23)cc1OC (centres undefined)	> 100 µM (inactive)	> 100 µM (inactive)	–	> 100 µM (inactive)	> 100 µM	> 100 µM (inactive)	> 100 µM (inactive)	> 100 µM (inactive)	> 100 µM (inactive)	> 100 µM (inactive)	> 100 µM (inactive)	> 100 µM (inactive)	> 100 µM (inactive)	> 100 µM (inactive)	> 100 µM (inactive)	–	> 100 µM (inactive)	> 100 µM (inactive)	–
CN/C(=N\n1cnnc1)OC	> 100 µM (inactive)	> 100 µM (inactive)	> 100 µM (inactive)	> 100 µM (inactive)	> 100 µM	> 100 µM (inactive)	> 100 µM (inactive)	> 100 µM (inactive)	> 100 µM (inactive)	> 100 µM (inactive)	> 100 µM (inactive)	> 100 µM (inactive)	> 100 µM (inactive)	–	> 100 µM (inactive)	–	> 100 µM (inactive)	> 100 µM (inactive)	> 100 µM (inactive)
